Data reported in patent US20140296146A1, “Thermostable Inhibitors of Activation of the Blood Clotting System Through Contact with Foreign Surfaces” (Synapse B.V., priority 2011, published 2014).
Where a SMILES comes first, the peptide text is derived from it. Bridges are numbered along the chain shown (N, C = ends).

Molecular target: T1, h-FXIIa (Homo sapiens, UniProt P00748)
T1 construct: purchased Enzyme Research Laboratories FXIIa 1212A
T1 sequence (P00748 373-615 limits assumed): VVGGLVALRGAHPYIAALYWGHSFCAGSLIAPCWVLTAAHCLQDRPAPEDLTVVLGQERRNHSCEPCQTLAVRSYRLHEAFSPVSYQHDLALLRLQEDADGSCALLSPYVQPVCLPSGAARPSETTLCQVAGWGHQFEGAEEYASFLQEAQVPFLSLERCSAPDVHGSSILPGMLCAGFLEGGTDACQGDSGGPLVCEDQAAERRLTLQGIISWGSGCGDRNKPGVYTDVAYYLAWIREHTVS
T1 sequence (P00748 20-372 partner limits assumed): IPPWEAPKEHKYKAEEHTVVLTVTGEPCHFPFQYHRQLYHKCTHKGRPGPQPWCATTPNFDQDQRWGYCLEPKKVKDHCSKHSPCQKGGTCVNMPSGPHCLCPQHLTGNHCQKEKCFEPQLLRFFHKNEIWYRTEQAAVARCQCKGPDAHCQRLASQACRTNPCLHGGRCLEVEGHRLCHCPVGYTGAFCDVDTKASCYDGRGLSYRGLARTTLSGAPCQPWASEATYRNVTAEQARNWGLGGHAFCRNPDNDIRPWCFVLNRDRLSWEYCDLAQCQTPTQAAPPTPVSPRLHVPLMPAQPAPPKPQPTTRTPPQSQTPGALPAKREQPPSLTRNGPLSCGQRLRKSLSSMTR
Test: Effect of inhibitors on hydrolysis of S2302 by h-FXIIa
Type: biochemical
Protocol: Materials • S2302 From Chromogenic, lot # N0398718 SEQ0860, exp. date 2012-07. Water added on 7 Oct. […] On 3 Aug. […] Product code FXIIa 1212A, lot #FXIIa 2520PL. Bottle with 0.5 mg was reconstituted with 370 μl pure water. […] Buffer 4 mM NaAc, 150 mM NaCl (pH 5.3). Preparation was divided into 20 μl amounts and frozen at −80° C. • Hepes735 140 mM NaCl, 20 mM Hepes, 0.02% NaN3 (pH 7.35). • BSA5 Hepes735+5 mg/ml BSA. • CTI Prepared on 17 Dec. 2004, 0.141 mg/ml, i.e. 0.141/12028=11.7*10^−6 M (11.7 μM). One portion was thawed and divided into 3 parts. Part 1 was frozen at −80° C.; part 2 was kept at RT; and part 3 was incubated 30 min at 95° C. and then kept at RT.
Stock FXIIa was diluted 700× in BSA5. The inhibitor was diluted in BSA5 as indicated. Wells contained 70 μl diluted FXIIa (5 nM final), 70 μl inhibitor and 20 μl S2302 (475 or 462.5 μM final). The reaction was started after 5 min heating on the heating plate with S2302. Filters 405 nm and 490 nm reference. Found mΔA/min was multiplied by 2.14 to get the figure for a 1 cm path.
The residual activity (V) was fitted against the PTI concentration with equation:
V=(E+(sqrt(Ê2+2*E*(Ki−I)+Î2+2*I*Ki+Kî2)−E−I−Ki)/2)*kcat*S/(Km+S)
in which E=[FXIIa], Ki is the dissociation constant, I=[Inhibitor], kcat and Km are Michaelis constants and S=[S2302].

Compound	Ki
CC[C@H](C)[C@@H]1NC(=O)[C@H](CCCNC(=N)N)NC(=O)[C@@H]2CCCN2C(=O)[C@@H](NC(=O)[C@@H](NC(=O)[C@H](CCCNC(=N)N)NC(=O)[C@H](C)NC(=O)[C@H](C)NC(=O)[C@H](C)N)C(C)C)CSSC[C@@H]2NC(=O)[C@H](CCC(=O)O)NC(=O)[C@H](C)NC(=O)[C@H](CC(C)C)NC(=O)[C@@H]3CSSC[C@@H](C(=O)NCC(=O)O)NC(=O)[C@H](Cc4ccc(O)cc4)NC(=O)CNC(=O)[C@H](Cc4c[nH]cn4)NC(=O)[C@H](CCC(=O)O)NC(=O)[C@H](CC(C)C)NC(=O)[C@H](CSSC[C@H](NC(=O)[C@H](CCCCN)NC(=O)[C@H](CCSC)NC(=O)[C@H](CC(C)C)NC1=O)C(=O)N[C@@H](CCCCN)C(=O)N[C@@H](CCCCN)C(=O)N[C@@H](CC(=O)O)C(=O)N[C@@H](CO)C(=O)N[C@@H](CC(=O)O)C(=O)N3)NC(=O)[C@H](C(C)C)NC2=O [AAA-TICA1] (H-AAARVCPRILMKCKKDSDCLAECVCLEHGYCG-OH; disulfide 6-23, 13-25, 19-31)	104 nM
CC[C@H](C)[C@@H]1NC(=O)[C@H](CCCNC(=N)N)NC(=O)[C@@H]2CCCN2C(=O)[C@@H](NC(=O)[C@@H](NC(=O)[C@@H](N)CCCNC(=N)N)C(C)C)CSSC[C@@H]2NC(=O)[C@H](CCC(=O)O)NC(=O)[C@H](C)NC(=O)[C@H](CC(C)C)NC(=O)[C@@H]3CSSC[C@@H](C(=O)NCC(=O)N[C@@H](C)C(=O)N[C@@H](C)C(=O)N[C@@H](C)C(=O)O)NC(=O)[C@H](Cc4ccc(O)cc4)NC(=O)CNC(=O)[C@H](Cc4c[nH]cn4)NC(=O)[C@H](CCC(=O)O)NC(=O)[C@H](CC(C)C)NC(=O)[C@H](CSSC[C@H](NC(=O)[C@H](CCCCN)NC(=O)[C@H](CCSC)NC(=O)[C@H](CC(C)C)NC1=O)C(=O)N[C@@H](CCCCN)C(=O)N[C@@H](CCCCN)C(=O)N[C@@H](CC(=O)O)C(=O)N[C@@H](CO)C(=O)N[C@@H](CC(=O)O)C(=O)N3)NC(=O)[C@H](C(C)C)NC2=O [TICA1-AAA] (H-RVCPRILMKCKKDSDCLAECVCLEHGYCGAAA-OH; disulfide 3-20, 10-22, 16-28)	377 nM
